Test systems include SN12C renal; HCT-15 colon; ACHN renal; SK-MEL-28 melanoma; OVCAR-5 ovarian; BT-549 breast; NCI-H226 lung; NCI-H522 lung; HL-60(TB) leukemia; SR leukemia.
Test in all cases: NCI anticancer screen, dose series, 48 h

Several values for one entry are separate records, joined by “and”; a condition that tells them apart may be missing. Equal entries are not always repeated.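 A five-concentration, 48-hour dose response in 96-well plates underlies each endpoint, interpolated linearly between surrounding concentrations. The concentration for 50% growth inhibition is given as GI50. Definition used: TGI = concentration required for complete inhibition of growth.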

Regarding `COc1ccc(Cn2c(Cl)c(/C=C3/C(=O)Nc4ccccc43)c3cc(OC)c(C)cc32)cc1`, the GI50 is 8.17 µM in the test on SN12C renal; 4.15 µM with HCT-15 colon; 8.11 µM with ACHN renal; 4.03 µM in the test with SK-MEL-28 melanoma; 6.06 µM in the test with OVCAR-5 ovarian; 17.2 µM in the test with BT-549 breast. The GI50 is 2.92 µM in the test on NCI-H226 lung, 4.77 µM in the test with NCI-H522 lung and 4.05 µM in the test with HL-60(TB) leukemia. Further, the TGI with SN12C renal, in the test on HCT-15 colon, with ACHN renal, with SK-MEL-28 melanoma, with OVCAR-5 ovarian and in the test with BT-549 breast was > 100 µM in each case. The TGI was 8.32 µM in the test with NCI-H226 lung, > 100 µM with NCI-H522 lung and > 100 µM in the test with HL-60(TB) leukemia.

As to `Oc1ccccc1-c1nc2c3ccccc3c3ccccc3c2[nH]1`, the GI50 in the test on SN12C renal is 10.7 µM; in the test on HCT-15 colon, 5.31 µM; with ACHN renal, 4.26 µM; with SK-MEL-28 melanoma, 14.4 µM; in the test on OVCAR-5 ovarian, 15 µM; in the test on BT-549 breast it was 9.06 µM. For the same molecule, the GI50 with NCI-H226 lung is 7.85 µM; in the test on NCI-H522 lung it was 3.07 µM; with HL-60(TB) leukemia it was 3.66 µM. For the same molecule, the TGI with SN12C renal amounted to 22.6 µM; in the test on HCT-15 colon it was 17.9 µM; with ACHN renal, 15.6 µM; with SK-MEL-28 melanoma, 27.4 µM; with OVCAR-5 ovarian, 28.3 µM; in the test with BT-549 breast, 21.7 µM. Also, the values for the TGI with NCI-H226 lung, in the test on NCI-H522 lung and in the test on HL-60(TB) leukemia were 20.9 µM, 10.3 µM and 14.9 µM, respectively.

Take `CCN(CC)CCCC(C)Nc1c2ccc(C)cc2nc2ccc(OC)cc12` (stereo unspecified): the GI50 with SN12C renal is 3.12 µM; in the test on HCT-15 colon, 2.32 µM; in the test on SR leukemia it was 2.04 µM; with ACHN renal, 0.741 µM; in the test with SK-MEL-28 melanoma it was 1.87 µM; with OVCAR-5 ovarian, 2.11 µM. Moreover, the GI50 with BT-549 breast is 10.7 µM; in the test with HL-60(TB) leukemia, 2.71 µM. The TGI in the test with SN12C renal was 55.1 µM; with HCT-15 colon, 13.1 µM; in the test on SR leukemia it was 7.18 µM; in the test on ACHN renal, 11.7 µM; in the test on SK-MEL-28 melanoma, 3.35 µM; in the test with OVCAR-5 ovarian it was 21.6 µM. Moreover, the TGI in the test with BT-549 breast came out at 27.3 µM; in the test with HL-60(TB) leukemia it was 9.44 µM.

For `COc1ccc(C2CC(n3nnnc3-c3ccccc3)=NN2)cc1` (stereo unspecified), the GI50 was 12.7 µM in the test on SN12C renal; 2.16 µM in the test with HCT-15 colon; 35.6 µM in the test on SR leukemia; 1.44 µM in the test with ACHN renal; 13.3 µM in the test with SK-MEL-28 melanoma; 5.59 µM in the test on OVCAR-5 ovarian. Also, the GI50 in the test with BT-549 breast was 8.89 µM; in the test on NCI-H226 lung, 4.98 µM; in the test with NCI-H522 lung, 1.16 µM. Besides, the TGI was > 100 µM in the test with SN12C renal; 26.2 µM with HCT-15 colon; > 100 µM with SR leukemia; 22.4 µM in the test on ACHN renal; > 100 µM with SK-MEL-28 melanoma; 61.7 µM with OVCAR-5 ovarian. Further, the TGI with BT-549 breast came out at 37.6 µM; with NCI-H226 lung, 22.8 µM; in the test on NCI-H522 lung it was 20.4 µM.

Consider `Cc1ccc(S(=O)(=O)N=Nc2c(O)[nH]c3c(Cl)cc(Cl)cc23)cc1`, for which the TGI in the test on SN12C renal, with HCT-15 colon, with SR leukemia, with ACHN renal, with SK-MEL-28 melanoma and with OVCAR-5 ovarian was > 100 µM each time. For the same molecule, the TGI with BT-549 breast, in the test on NCI-H226 lung and with HL-60(TB) leukemia was > 100 µM in each case.

With `CC(=O)Nc1ccc(S(=O)(=O)NNC(=O)c2cccnc2Nc2ccc(Cl)cc2)cc1`, the GI50 was 59.3 µM in the test on SN12C renal; 13.7 µM with HCT-15 colon; 6.35 µM in the test with SR leukemia; 52.2 µM in the test with ACHN renal; 23.4 µM with SK-MEL-28 melanoma; 25.2 µM in the test with BT-549 breast. The figures for the GI50 with NCI-H226 lung, in the test with NCI-H522 lung and with HL-60(TB) leukemia were 42.3 µM, 6.44 µM and 9.67 µM, respectively. The TGI with SN12C renal, in the test with HCT-15 colon, in the test with SR leukemia, in the test on ACHN renal, with SK-MEL-28 melanoma and in the test with BT-549 breast was > 100 µM in each case. The TGI in the test with NCI-H226 lung, in the test on NCI-H522 lung and in the test with HL-60(TB) leukemia was > 100 µM in each case.

Regarding `CC(C)(C)NC(=O)[C@H]1C[C@H]2CCCC[C@H]2CN1C[C@@H](O)[C@H](Cc1ccccc1)NC(=O)[C@H](CC(N)=O)NC(=O)c1ccc2ccccc2n1`, the GI50 is 13.9 µM with SN12C renal; 14 µM in the test with HCT-15 colon; 16 µM in the test with ACHN renal; 16.9 µM in the test with SK-MEL-28 melanoma; 16.7 µM in the test with OVCAR-5 ovarian; 11.2 µM in the test on BT-549 breast. For the same molecule, the GI50 with NCI-H226 lung is 15.4 µM; in the test on NCI-H522 lung it was 15.6 µM; with HL-60(TB) leukemia, 4.22 µM. Also, the TGI with SN12C renal was 27.8 µM; with HCT-15 colon, 33.8 µM; in the test with ACHN renal it was 29.5 µM; in the test with SK-MEL-28 melanoma, 33.1 µM; in the test with OVCAR-5 ovarian, 30.5 µM; with BT-549 breast, > 66.1 µM. Moreover, the TGI with NCI-H226 lung amounted to 32.8 µM; in the test with NCI-H522 lung, 33.8 µM; in the test with HL-60(TB) leukemia, 26.3 µM.

Take `CN[C@@H]1C[C@H]2O[C@@](C)([C@@H]1OC)n1c3ccccc3c3c4c(c5c6ccccc6n2c5c31)C(=O)N[C@@H]4O`: the TGI in the test with SN12C renal was 6.77 µM; with HCT-15 colon, 0.3 µM and 1.33 µM; in the test on SR leukemia it was 0.833 µM; in the test with SK-MEL-28 melanoma, 2.31 µM; with OVCAR-5 ovarian, 0.298 µM and 0.24 µM; with BT-549 breast, 0.3 µM and 0.627 µM. The TGI in the test with NCI-H226 lung was 0.3 µM and 0.477 µM; with NCI-H522 lung, 0.197 µM and 0.382 µM. Further, the GI50 is 0.0556 µM with HCT-15 colon; 0.00526 µM and < 0.0151 µM in the test with ACHN renal; 0.0226 µM in the test on OVCAR-5 ovarian; 0.0193 µM in the test with BT-549 breast; 0.0492 µM in the test with NCI-H226 lung.

Take `COc1ccc(CN2c3ccccc3CCc3ccccc32)cc1F`: the GI50 was 1.95 µM with SN12C renal; 0.428 µM in the test on HCT-15 colon; 0.463 µM in the test on SR leukemia; 0.604 µM in the test on ACHN renal; 0.82 µM with SK-MEL-28 melanoma; 1.9 µM in the test on OVCAR-5 ovarian. In addition, the figures for the GI50 with BT-549 breast, with NCI-H226 lung and with NCI-H522 lung were 0.776 µM, 2.43 µM and 0.609 µM, respectively. Further, the TGI with SN12C renal, with HCT-15 colon, in the test on SR leukemia, in the test with ACHN renal, with SK-MEL-28 melanoma and in the test with OVCAR-5 ovarian was > 100 µM each time. For the same molecule, the TGI in the test on BT-549 breast is 41.2 µM; with NCI-H226 lung, > 100 µM; with NCI-H522 lung, > 100 µM.
